Measured values: patent publication US20230357312A1, “Borylated Di-Peptide Amino Acid compositions for use in Boron Neutron Capture Therapy and methods thereof” (TAE Life Sciences, priority 2021, published 2023)
Converted amounts (≈) assume the structure as drawn. Values belong to the compound of their own block, whether it stands above or below them.

Tests used:
FaDu cells [1] = assay: Borylated dipeptide uptake in cancer cell lines (boron by ICP-OES); format: cell-based, human; conditions: 2.5 mM in HBSS, 37° C., 2 hrs; FaDu: high LAT1, PEPT1 negative
Protocol: (§1) The indicated cancer cell line (A) or FaDu cells (B) were harvested from culture and washed twice with PBS. Cell lines were adjusted to 2 million cells/ml in Hanks Balanced Salt Solution (HBSS). BPA or dipeptide boron compounds were added to cells at the final concentration of 2.5 mM in HBSS and the treated cells were incubated at 37° C. 5% CO2 for 2 hrs with shaking. The cells were collected by centrifugation; washed with cold PBS twice and reconstituted in 1 ml of cold PBS. Then, 50 µl of cell suspension was removed, pelleted, and lysed using RIPA buffer and the protein concentration was determined using BCA assay. The remaining 950 µl was used for boron compounds uptake measurements using ICP-OES.
(§2) To this end, 0.5 mL of concentrated nitric acid was added to each cell pellet in a 15 mL conical tube. The tubes were capped and placed in an oven set at 80° C. for 3 hours. 2 mL of water was added’ to each sample to bring the final volume up to 2.5 mL. The boron content in each sample was then measured on an Agilent 5110 ICP-OES using an Agilent SPS4 Autosampler for sample introduction.
The data was analyzed using Agilent’s ICP Expert Software, version 7.4.2.10790. Boron was measured axially at the 249.772 nm wavelength and the internal standard Beryllium was measured axially at the 313.042 nm wavelength. Beryllium was tee-ed into the solution at 1:5 the flowrate before introduction to the spray chamber. A standard curve using 1000, 100, 10, 1 and 0 ppb of boron was used to calculate the concentration of boron in each sample. Once determined, the boron measurement for each sample was normalized to protein content and final boron uptake results were expressed as ng boron/mg protein.
In another experiment, uptake of BPA and dipeptide His-BPA was carried out in FaDu, and ASPC-1 as described in FIG. 15. […] Accordingly, the data supports the finding that borylated dipeptides may be taken up efficiently in PEPT1 or other dipeptide transporter expressing cancers. See, FIG. 16(C).
In this experiment, the uptake of several dipeptide and dipeptide analogs was carried out in FaDu and ASPC-1 cells. Normalized boron uptake was determined as in FIG. 15. […] However, several dipeptides are still taken up in PEPT1 negative FaDu cells, although to a lower extent, which further confirms the proposition that an uptake mechanism does exist in FaDu cells for these dipeptides that is not PEPT1. See, FIG. 19.

FaDu cells [2] = assay: Dipeptide degradation to BPA by HPLC; format: in vitro ADME, human; conditions: for relative conversion into BPA in the presence of cells: 2.5 mM in HBSS, 4 hrs at 37° C., FaDu cells, RP-HPLC/MS semi-quantitative
Protocol: In this experiment, to investigate whether dipeptides are converted to BPA, which is then taken up through its cognate transporter, evaluation of whether dipeptides remained intact in the tissue culture media in the presence of absence of cancer cells was made using the following protocols. Briefly, FaDu cells were harvested and counted. The cell number was adjusted to 50×10^5 / mL in the HBSS tissue culture medium using 1 mL per well. The cells were incubated at 37° C. in the 5% CO2 overnight. At the end, the supernatants were aspirated, and cells were rinsed with 1 mL PBS once. Each test article was prepared at 2.5 mM concentration in HBSS medium, and 0.4 mL was added to cells. After 4 hrs. at 37° C. the supernatants were harvested and analyzed by RP HPLC using an ACQUITY BEH C18 column 2.1 × […] (Waters) equipped with a matching guard column equilibrated with 2% aqueous acetonitrile/0.1% formic acid mobile phase. The dipeptides were separated in the gradient of 90% acetonitrile/10% water/0.1% formic acid to 20% in 6 min and identified by UV225 nm. The masses were confirmed by an online QDA mass spectrometer. Breakdown of the original dipeptide was quantitated by comparing with the control - the same dipeptide incubated in the same fashion in the absence of cells. Stabilities of BPA-BPA, Ala-BPA, and BPA-Ala were compared, and the formation of BPA was measured semi-quantitatively by RP-HPLC/MS.

intracranial tumor = conditions: BNCT, Japan, 1968; cited from earlier work
AsPC-1 cells = assay: Uptake inhibition by PEPT1 competitive inhibitor Gly-SAR; format: cell-based, human; conditions: 0.8 mM test compound, with and without Gly-SAR
Protocol: (§3) In this experiment, uptake of BPA and dipeptide His-BPA (0.8 mM of each) was carried out in FaDu and ASPC-1 in the presence and absence of the indicated concentrations of PEPT1 dipeptide transporter competitive inhibitor Gly-SAR. Normalized boron uptake was determined as in FIG. 15.

FaDu cells [3] = assay: as above; format: cell-based, human; conditions: 0.8 mM test compound, with and without Gly-SAR
Protocol: as §3

CT26 xenografts [4] = assay: BNCT study, 12 or 6 minute irradiation at 5 MW; format: in vivo, BALB/c mice; conditions: monitored to 22 days
Protocol: Following one (1) hour of treatment time, mice were irradiated for either 12 minutes (33(A)) or 6 minutes (33(B)) at the Kyoto University Research Reactor (Kyoto, Japan) 1 set at 5 megawatts. Data are the means ± SD of 3 mice per treatment group. Tumors were measured for growth out to 22 days.

CT26 xenografts [5] = assay: BNCT tumor regression study, 6 minute irradiation; format: in vivo, BALB/c mice; conditions: 6 minutes irradiation
Protocol: In this experiment, CT26 xenografts in BALB/c mice were dosed with 400 mg/kg of BPA or 900 mg/kg of His-BPA or BPA-BPA. Following one (1) hour treatment time, mice were irradiated for 6 minutes at the Kyoto University Research Reactor (Kyoto, Japan) 1 set at 5 megawatts. Data are the means ± SD of 3 mice per treatment group. Tumors were measured for growth out to 36 days and examined for tumor presence at 40 days. BPA and control groups were sacrificed at day 18 due to excessive tumor growth.

[6] = cited from earlier work
Solubility = format: physicochemical
CT26 = assay: Borylated dipeptide uptake in cancer cell lines (boron by ICP-OES); format: cell-based, mouse; conditions: 2.5 mM in HBSS, 37° C., 2 hrs
Protocol: as §1
as §2, with “2 mL of water was added’ to each sample to bring the final volume up to 2.5 mL.” left out
(§4) The data was analyzed using Agilent’s ICP Expert Software, version 7.4.2.10790. Boron was measured axially at the 249.772 nm wavelength and the internal standard Beryllium was measured axially at the 313.042 nm wavelength. […] Once determined, the boron measurement for each sample was normalized to protein content and final boron uptake results were expressed as ng boron/mg protein.

T98G = assay: as above; format: cell-based, human; conditions: 2.5 mM in HBSS, 37° C., 2 hrs
Protocol: as §1
as §2, with “2 mL of water was added’ to each sample to bring the final volume up to 2.5 mL.” left out
as §4

A431 = assay: as above; format: cell-based; conditions: 2.5 mM in HBSS, 37° C., 2 hrs
Protocol: as §1
as §2, with “2 mL of water was added’ to each sample to bring the final volume up to 2.5 mL.” left out
as §4

[7] = Pharmacokinetics (blood boron by ICP OES); format: in vivo, Balb/C non-tumor bearing male mice; conditions: tail vein injection
Protocol: In this experiment, pharmacokinetics of BPA-BPA was evaluated using the following protocols. Briefly, […] of each compound was injected in the tail vein of Balb/C non-tumor bearing male mice (5 mice per group). Blood was drawn at the following time points: 2, 5, 16, 30, 60, 120 and 240 minutes into EDTA-coated tubes. Boron concentration was measured using ICP OES following the digestion in concentrated nitric acid for 1 hour. The boron concentration was normalized to 1 mL of blood and plotted using GraphPad Prizm. The PK parameters (see, FIG. 22, Table) were obtain using PK Solver ver. 2.0 using compartmental analysis BPA-fructose was used as a reference substance.

[8] = test system: FaDu, Detroit-562, MeWo, HCC-1954, A549 and AsPC-1 human cancer xenograft models; assay: Dose escalation of boron delivery, all tested xenograft models; format: in vivo, CB17 SCID mice; conditions: 1000 mg/kg, 120 minutes
Protocol: Tumors were harvested 120 minutes following treatment and boron content determined by ICP-OES. Data are the means ± SD of 5 mice per treatment group.

[9] = Pharmacokinetics of BPA-BPA
Description: Table printed on a drawing sheet, Figure 28, continued. Title: Pharmacokinetics of BPA-BPA The patent's description of the figure: FIG. 28. Pharmacokinetics of BPA-BPA. First reader's note: Continuation of Figure 28; BPA-BPA is a borylated dipeptide, BPA Fructose is the comparator formulation.

- relative conversion into BPA in the presence of cells (FaDu cells [2]): Ala-BPA > BPA-BPA > BPA-Ala
Compound: C[C@H](N)C(=O)N[C@@H](Cc1ccc(B(O)O)cc1)C(=O)O [Ala-BPA, Alanine-BPA]
- boron uptake (compared in words) (FaDu cells [1]): to a lower extent than BPA

- relative conversion into BPA in the presence of cells (FaDu cells [2]): Ala-BPA > BPA-BPA > BPA-Ala
Compound: CC(NC(=O)[C@@H](N)Cc1ccc(B(O)O)cc1)C(=O)O (stereo partly drawn) [BPA-Ala, BPA-Alanine]
- boron uptake (compared in words) (FaDu cells [1]): to a lower extent than BPA

Compound: CC(C)C[C@H](N)C(=O)N[C@@H](Cc1ccc(B(O)O)cc1)C(=O)O [Leu-BPA, Leucine-BPA]
- boron uptake (compared in words) (FaDu cells [1]): to a lower extent than BPA

Compound: sodium borocaptate [BSH]
- 5-year survival rate (intracranial tumor): 58%

Compound: N[C@@H](Cc1ccc(B(O)O)cc1)C(=O)O [BPA, 4-Borono-L-phenylalanine, reference compound]
- boron uptake (compared in words) (FaDu cells [1]): to a much greater extent than His-BPA
- effect of Gly-SAR on boron uptake (AsPC-1 cells): no effect
- effect of Gly-SAR on boron uptake (FaDu cells [3]): no effect
- tumor growth after BNCT (CT26 xenografts [4]; 200 mg/kg, 6 minutes irradiation at 5 MW): only modest tumor inhibition
- tumor growth after BNCT (CT26 xenografts [4]; 200 mg/kg, 12 minutes irradiation at 5 MW): significant and similar growth inhibition, even regression
- tumor growth after BNCT (CT26 xenografts [5]; 400 mg/kg, group sacrificed by day 18): continued tumor growth
- solubility ([6]; L-BPA without fructose): 1700 µg/mL (≈ 8.13 mM)
- concentration achieved with fructose formulation ([6]; fructose formulation, quasi-stable solution): 30000 µg/mL

Compound: N[C@@H](Cc1ccc(B(O)O)cc1)C(=O)N[C@@H](Cc1ccc(B(O)O)cc1)C(=O)O [BPA-BPA]
- solubility (in words, compared to BPA) (Solubility): improved solubility
- boron uptake compared to BPA (CT26): to a similar extent
- boron uptake compared to BPA (T98G): to a similar extent
- boron uptake (compared in words) (FaDu cells [1]): slightly lower than the LAT1 substrate BPA
- boron uptake compared to BPA (A431): slightly lower than the LAT1 substrate BPA
- relative conversion into BPA in the presence of cells (FaDu cells [2]): Ala-BPA > BPA-BPA > BPA-Ala
- formation of BPA in the absence of cells (FaDu cells [2]; 2.5 mM, 4 hrs, media, no cells): Only trace amount of BPA
- clearance (CL) compared to BPA [7]: remarkably similar
- total drug exposure across time (AUC from zero to infinity) compared to BPA [7]: marginally lower
- t½ beta (elimination phase) compared to BPA [7]: remarkably similar
- pharmacokinetic profile ([7]; blood boron): bi-phasic pharmacokinetics
- tumor boron delivery, rank among treatments [8]: greatest boron to all tested xenografts
- tumor growth after BNCT (CT26 xenografts [4]; 800 mg/kg, 12 minutes irradiation at 5 MW): significant and similar growth inhibition, even regression
- tumor growth after BNCT (CT26 xenografts [5]; 900 mg/kg, sustained out to 36 days): significant tumor regression
- AUC (0 − t) [9]: 20463.9 µg·min/mL
- AUC (0 − ∞) [9]: 29133.2 µg·min/mL
- C0 [9]: 522.0 µg/mL
- CL, mg/(μg/mL)/min [9]: 0.000113 mg/(μg/mL)/min
- CMAX [9]: 362.83 µg/mL
